Measurements from patent publication US20220169654A1, “New Organic Compounds” (Servier Pharmaceuticals LLC, priority 2020, published 2022).
pIC50: −log10 of the molar value.

How the values were obtained:
MAT2A homodimer = biological target: T1, MAT2A homodimer (Homo sapiens, UniProt P31153); test: MAT2A inhibition (biochemical, liberated phosphate, PiColorLock Gold); conditions: recombinant MAT2A homodimer; IC50 bin with Max Inh.; read-out: Enzyme Inhibition Bin
T1 construct: inferred from Ni sepharose purification with imidazole elution; made in house; host or cells: Sf9 insect cells, baculovirus (Bac to Bac, pFASTBAC1)
T1 sequence (P31153 whole entry): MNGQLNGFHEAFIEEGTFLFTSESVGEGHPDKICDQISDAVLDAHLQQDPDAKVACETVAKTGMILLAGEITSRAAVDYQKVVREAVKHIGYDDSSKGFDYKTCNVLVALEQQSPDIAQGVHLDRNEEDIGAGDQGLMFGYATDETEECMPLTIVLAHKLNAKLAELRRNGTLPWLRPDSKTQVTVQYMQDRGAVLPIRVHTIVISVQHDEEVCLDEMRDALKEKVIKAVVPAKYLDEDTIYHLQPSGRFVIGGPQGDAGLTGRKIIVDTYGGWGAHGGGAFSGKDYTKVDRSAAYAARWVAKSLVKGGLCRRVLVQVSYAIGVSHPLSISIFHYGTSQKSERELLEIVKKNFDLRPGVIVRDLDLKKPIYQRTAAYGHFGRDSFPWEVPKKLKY
Procedure: Mat2A protein was expressed by recombinant baculovirus in SF9 infected cells using the Bac to Bac system cloned into the pFASTBAC1 vector (Invitrogen, Carlsbad, Calif.). Recombinant MAT2A was isolated from the cell lysate of 150 g of infected cells using HP Ni sepharose column chromatography. Recombinant MAT2A homodimer was eluted with 250 and 500 mM imidazole, and fractions containing MAT2A were identified by sodium dodecyl sulfate polyacrylamide gel electrophoresis and pooled.
For determination of the inhibitory potency of compounds against the MAT2A homodimer, protein was diluted to 4 μg/mL in assay buffer (50 mM Tris, pH 8.0, 50 mM KCl, 15 mM MgCl2, 0.3 mM EDTA, 0.005% [w/v] bovine serum albumin [BSA]). Test compound was prepared in 100% dimethyl sulfoxide (DMSO) at 50× the desired final concentration. A 1 μL volume of compound dilution was added to 40 μL of enzyme dilution and the mixture was allowed to equilibrate for 60 minutes at 25° C. The enzymatic assay was initiated by the addition of 10 μL of substrate mix (500 μM ATP, pH 7.0, 400 μM L-methionine in 1× assay buffer), and the mixture was incubated for a further 60 minutes at 25° C. The reaction was halted and the liberated phosphate released by the enzyme in stoichiometric amounts by the production of S-adenosyl methionine (SAM) was measured using the PiColorLock Gold kit (Innova Biosciences, UK). Absolute product amounts were determined by comparison to a standard curve of potassium phosphate buffer, pH 8.0. The compounds were also tested in a secondary assay utilizing 1 μg/mL MAT2A and incubated for 5 hours at 25° C. before halting and processing as above.
Specific compounds disclosed herein were tested in the foregoing assay and they were determined to inhibit MAT2A with an IC50. See, Table 1 below.

[1] = test system: SAM in HCT116 human colon carcinoma cell line with MTAP gene deleted (MTAP −/−); test: Cellular assay of target engagement (SAM), LC-MS/MS, 72 hrs; format: cell-based; conditions: HCT-116, IC50 bin with Max Inh., read-out: Cell 72 h SAM Inhibition (MTAP −/−)
Procedure: Measurement of MAT2A activity in cells was made by direct quantitation of the abundance of the product of its enzymatic activity, SAM. Cancer cells were treated with candidate MAT2A inhibitors for a suitable incubation period, and the cells were then lysed using a reagent which quenched any further enzyme activity. Soluble metabolites including SAM were collected and SAM itself was directly measured from the lysate using quantitative LC-MS/MS.
A typical assay was performed using an HCT116 human colon carcinoma cell line which was genetically engineered to delete the MTAP gene (commercially available from Horizon Discovery). This cell line was utilized because it was determined that loss of the MTAP gene predicts sensitivity to MAT2A inhibitors. Cells were plated in 96-well dishes at appropriate cell density. Following 24 hours, cells were then treated with the candidate MAT2A inhibitor. Prior to addition to cells, the compound was first serially diluted in 100% DMSO, typically as a 3-fold serial dilution starting at 500× top dose with 10 dose points including DMSO only control. Compound was then transferred to a working stock plate in cell culture media by adding 5 μL of compound in DMSO to 495 μL of cell culture media. This working stock was then added to cells via a further 5-fold dilution, by adding 25 μL of working stock to 100 μL of cells in culture media. Following compound addition, cells were incubated at 37° C./5% CO2 for 72 hrs.
To quantitate SAM levels following compound treatment, cells were gently washed once in ammonium carbonate buffer (75 mM at pH 7.4), placed on dry ice, and lysed with metabolite extraction buffer (80% cold methanol and 20% water (v/v) with acetic acid at 1M final concentration with 200 ng/mL deuterated d3-SAM as internal control). Following centrifugation at 4° C. at 3,200 rpm for 30 minutes, the supernatant was collected and stored at −80° C. until analysis by Liquid Chromatography with tandem Mass Spectrometry (LC-MS/MS). LC-MS/MS analysis was performed using an API6500 Mass Spectrometer (Sciex, Framingham, Mass., USA) operating in positive ion spray mode and equipped with a Waters UPLC Acquity (Waters, Milford, Mass., USA) BEH Amide column. Multiple Reaction Monitoring data was acquired for SAM and the d3-SAM standard, using a mass transition pair at m/z 399.2→250.1 and 402.2→250.1, respectively. In a typical LC-MS/MS analysis, the initial flow rate was 0.5 ml/min of 25% mobile phase A (acetonitrile and water at 5:95 (v/v) with 1% formic acid and 10 mM ammonium acetate) and 75% mobile phase B (acetonitrile and water at 95:5 (v/v) with 1% formic acid and 10 mM ammonium acetate), 0.2-0.5 minutes with 75%-35% mobile phase B, 25%-65% mobile phase A, at 0.5 min 65% mobile phase A and 35% mobile phase B, 1.0-1.1 minutes with 35%-75% mobile phase B, 65%-25% mobile phase A, at 1.1 min 25% mobile phase A and 75% mobile phase B with a total run time of 1.5 minutes.
Specific compounds disclosed herein were tested in the foregoing assay and they were determined to inhibit SAM with an IC50. See, Table 1 below.

HCT116 MTAP−/− = test: Inhibition of cellular proliferation, 4 days, Cell Titer Glo, HCT116 MTAP−/−; format: cell-based; conditions: Homo sapiens, HCT-116, 96 h, IC50 bin with Max Inh., read-out: 4 Day Relative Growth Inhibition (MTAP −/−)
Procedure: (§1) Test compound impact on cancer cell growth was assessed by treating cancer cells with compound for 4 days and then measuring proliferation using an ATP-based cell proliferation readout (Cell Titer Glo, Promega Corporation).
(§2) In a typical assay an isogenic pair of HCT116 human colon carcinoma cell lines which vary only in MTAP deletion status (HCT116 MTAP+/+ and HCT116 MTAP−/−) were plated in 96-well dishes at appropriate cell density. Following 24 hours, cells were then treated with the candidate MAT2A inhibitor. Prior to addition to cells, the compound was first serially diluted in 100% DMSO, typically as a 3-fold serial dilution starting at 500× top dose with 10 dose points including DMSO only control. Compound was then transferred to a working stock plate in cell culture media by adding 5 μL of compound in DMSO to 495 μL of cell culture media. This working stock was then added to cells via a further 5-fold dilution, by adding 25 μL of working stock to 100 μL of cells in culture media. Following compound addition, cells were incubated at 37° C./5% CO2 for 4 days.
(§3) To measure inhibition of cellular proliferation, cells were allowed to equilibrate to room temperature for 30 minutes, and were then treated with 125 μL of Cell Titer Glo reagent. The plate was then covered with aluminum foil and shaken for 15 minutes to ensure complete mixing and full cell lysis. Luminescent signal was then measured using a plate-based luminometer Veritas version 1.9.2 using ATP standard curve to confirm assay reproducibility from run to run. This luminescence measure was converted to a proliferation index by subtracting from each data point the ATP luminescence signal measured from a bank (no cells) well and dividing by the ATP luminescence signal measured in 0.2% DMSO control well adjusted for signal in blank well. Compound activity was then represented as a percentage change in proliferation relative to a within-plate DMSO control against log 10 of compound concentration in molar (M) units.
(§4) Specific compounds disclosed herein were tested in the foregoing assay and they were determined to inhibit cellular proliferation with an IC50. See, Table 1 below.

HCT116 MTAP+/+ = test: Inhibition of cellular proliferation, 4 days, Cell Titer Glo, HCT116 MTAP+/+; format: cell-based; conditions: Homo sapiens, HCT-116, 96 h, IC50 bin with Max Inh., read-out: 4 Day Relative Growth Inhibition (MTAP +/+)
Procedure: as §1, §2, §3, §4

| pIC50 (MAT2A homodimer) | pIC50 [1] | pIC50 (HCT116 MTAP−/−) | pIC50 (HCT116 MTAP+/+) | SMILES |
| --- | --- | --- | --- | --- |
| > 7.00 | > 7.00 | > 7.00 | < 6.00 | Cn1cc2cc(-n3nc4ccn(CC5CC5)c4c(-c4ccc(OC(F)F)cc4)c3=O)ccc2n1 [Example 101, 5-(cyclopropylmethyl)-4-(4-(difluoromethoxy)phenyl)-2-(2-methyl-2H-indazol-5-yl)-2,5-dihydro-3H-pyrrolo[3,2-c]pyridazin-3-one] |
| > 7.00 | > 7.00 | > 7.00 | < 6.00 | Cn1cc2cc(-n3nc4c(C#N)cn(CC5CC5)c4c(-c4ccc(OC(F)F)cc4)c3=O)ccc2n1 [Example 102, 5-(cyclopropylmethyl)-4-(4-(difluoromethoxy)phenyl)-2-(2-methyl-2H-indazol-5-yl)-3-oxo-3,5-dihydro-2H-pyrrolo[3,2-c]pyridazine-7-carbonitrile] |
| > 7.00 | > 7.00 | > 7.00 | < 6.00 | Cn1cc2cc(-n3nc4ccn(CCC(F)(F)F)c4c(-c4ccc(OC(F)F)cc4)c3=O)ccc2n1 [Example 105, 4-(4-(difluoromethoxy)phenyl)-2-(2-methyl-2H-indazol-5-yl)-5-(3,3,3-trifluoropropyl)-2,5-dihydro-3H-pyrrolo[3,2-c]pyridazin-3-one] |
| > 7.00 | > 7.00 | > 7.00 | < 6.00 | Cn1cc2cc(-n3nc4ccn(CC5CC5)c4c(-c4ccc(Cl)cc4)c3=O)ccc2n1 [Example 112, 4-(4-chlorophenyl)-5-(cyclopropylmethyl)-2-(2-methyl-2H-indazol-5-yl)-2,5-dihydro-3H-pyrrolo[3,2-c]pyridazin-3-one] |

The remaining lines, values behind:

| SMILES | pIC50 (MAT2A homodimer) | pIC50 [1] | pIC50 (HCT116 MTAP−/−) | pIC50 (HCT116 MTAP+/+) |
| --- | --- | --- | --- | --- |
| Cc1ccc(-c2c(=O)n(-c3ccc4nn(C)cc4c3)nc3ccn(CC4CC4)c23)cn1 [Example 103, 5-(cyclopropylmethyl)-2-(2-methyl-2H-indazol-5-yl)-4-(6-methylpyridin-3-yl)-2,5-dihydro-3H-pyrrolo[3,2-c]pyridazin-3-one] | > 7.00 | > 7.00 | > 7.00 | 6.00 to 7.00 |
| Cc1ccc(-c2c(=O)n(-c3ccc4nn(C)cc4c3)nc3c(C#N)cn(CC4CC4)c23)cn1 [Example 104, 5-(cyclopropylmethyl)-2-(2-methyl-2H-indazol-5-yl)-4-(6-methylpyridin-3-yl)-3-oxo-3,5-dihydro-2H-pyrrolo[3,2-c]pyridazine-7-carbonitrile] | > 7.00 | > 7.00 | > 7.00 | < 6.00 |
| Cn1cc2cc(-n3nc4ccn(CC5CC5)c4c(-c4ccc(C5CC5)nc4)c3=O)ccc2n1 [Example 106, 5-(cyclopropylmethyl)-4-(6-cyclopropylpyridin-3-yl)-2-(2-methyl-2H-indazol-5-yl)-2,5-dihydro-3H-pyrrolo[3,2-c]pyridazin-3-one] | > 7.00 | > 7.00 | > 7.00 | < 6.00 |
| Cn1cc2cc(-n3nc4c(C#N)cn(CC5CC5)c4c(-c4ccc(C5CC5)nc4)c3=O)ccc2n1 [Example 107, 5-(cyclopropylmethyl)-4-(6-cyclopropylpyridin-3-yl)-2-(2-methyl-2H-indazol-5-yl)-3-oxo-3,5-dihydro-2H-pyrrolo[3,2-c]pyridazine-7-carbonitrile] | > 7.00 | > 7.00 | > 7.00 | 6.00 to 7.00 |
| Cc1ccc(-c2c(=O)n(-c3ccc4nn(C)cc4c3)nc3c(C#N)cn(CCC(F)(F)F)c23)cn1 [Example 108, 2-(2-methyl-2H-indazol-5-yl)-4-(6-methylpyridin-3-yl)-3-oxo-5-(3,3,3-trifluoropropyl)-3,5-dihydro-2H-pyrrolo[3,2-c]pyridazine-7-carbonitrile] | 6.00 to 7.00 | 6.00 to 7.00 | < 6.00 | 6.00 to 7.00 |
| Cn1cc2cc(-n3nc4c(C#N)cn(CCC(F)(F)F)c4c(-c4ccc(C5CC5)nc4)c3=O)ccc2n1 [Example 109, 4-(6-cyclopropylpyridin-3-yl)-2-(2-methyl-2H-indazol-5-yl)-3-oxo-5-(3,3,3-trifluoropropyl)-3,5-dihydro-2H-pyrrolo[3,2-c]pyridazine-7-carbonitrile] | > 7.00 | 6.00 to 7.00 | 6.00 to 7.00 | < 6.00 |
| COc1ccc(-c2c(=O)n(-c3ccc4nn(C)cc4c3)nc3ccn(CC4CC4)c23)cn1 [Example 110, 5-(cyclopropylmethyl)-4-(6-methoxypyridin-3-yl)-2-(2-methyl-2H-indazol-5-yl)-2,5-dihydro-3H-pyrrolo[3,2-c]pyridazin-3-one] | > 7.00 | > 7.00 | > 7.00 | < 6.00 |
| COc1ccc(-c2c(=O)n(-c3ccc4nn(C)cc4c3)nc3c(C#N)cn(CC4CC4)c23)cn1 [Example 111, 5-(cyclopropylmethyl)-4-(6-methoxypyridin-3-yl)-2-(2-methyl-2H-indazol-5-yl)-3-oxo-3,5-dihydro-2H-pyrrolo[3,2-c]pyridazine-7-carbonitrile] | > 7.00 | > 7.00 | > 7.00 | < 6.00 |
